Laboratory results taken from patent publication US20130131161A1, “METHODS AND COMPOSITIONS FOR CARDIOVASCULAR DISEASES AND CONDITIONS” (priority 2009, published 2013).

System: Human umbilical vein endothelial cells (HUVECs)
Assay: Comparison of LA-419 and ISDN: NO and ONOO− release from HUVECs measured with tandem electrochemical nanosensors (Example 1)
Assay type: cell-based
Settings: for NO release (mean ± S.D.) / ONOO− release (mean ± S.D.): 500 nM, 12 hours, then CaI (1.0 μM)
Method: Human umbilical vein endothelial cells (HUVECs) were isolated into primary cultures and purchased as proliferating cells from Clonetics (San Diego, Calif.). All cell culture donors were healthy, with no pregnancy or prenatal complications. The cultured cells were incubated in 95% air/5% CO2 at 37° C. and passage by an enzymatic (trypsin) procedure. The confluent cells (4 to 5×10^5 cells per 35-mm dish) were placed with minimum essential medium containing 3 mM L-arginine and 0.1 mM BH4 [(6R)-5,6,7,8-tetrahydrobiopterin]. Before the experiments, the cells (from second or third passage) were rinsed twice with Tyrode-HEPES buffer with 1.8 mM CaCl2. ISDN was obtained from Sigma-Aldrich.
Concurrent measurements of NO and ONOO^− were carried out with tandem electrochemical nanosensors combined into one working unit with a total diameter of 200-500 nm (FIG. 1). Their design was based on previously developed and well-characterized chemically modified carbon-fiber technology (Malinski and Taha, 1992; Lvovich and Scheeline, 1997). Each of the nanosensors was made by depositing a sensing material on the tip of a carbon fiber (length 4-5 μm, diameter 0.2-0.5 μm). The fibers were sealed with nonconductive epoxy and electrically connected to copper wires with conductive silver epoxy. A conductive film of polymeric nickel (II) tetrakis(3-methoxy-4-hydroxyphenyl)porphyrin for the NO-sensor and polymeric film of Mn (III) [2.2]paracyclophanylporphyrin was used for the ONOO^−-sensor.
A module of NO/ONOO^− nanosensors (diameter 1-2 μm) with a platinum wire (0.1 mm) counter electrode and saturated calomel reference electrode (SCE) were applied. Differential pulse voltammetry (DPV) and amperometry were performed with a computer-based Gamry VFP600 multichannel potentiostat. DPV was used to measure the basal NO and ONOO^− concentrations, and amperometry was used to measure changes in NO and ONOO^− concentrations from its basal level with time. The DPV current at the peak potential characteristic for NO oxidation (0.65 V) and ONOO^− reduction (−0.45 V) was directly proportional to the local concentrations of these compounds in the immediate vicinity of the sensor. Linear calibration curves (current vs. concentration) were constructed for each sensor from 10 nM to 3 μM before and after measurements with aliquots of NO and ONOO^− standard solutions, respectively. The detection limit of the sensors was 1.0 nM.
The quantification of each analyte (concentration in nM) was performed using a maximum current from amperograms and standard calibration curves. A reproducibility of measurements with nanosensors is relatively high (between 5-12%). […] The sensors were slowly raised 5±2 μm from the surface of a single endothelial cell. The eNOS agonist, calcium ionophore A23187 (CaI) as well as the different drugs were then added to the surrounding media at the cell surface with a nanoinjector that was also positioned by a computer controlled-micromanipulator.
The HUVEC preparation is stable over the course of these experiments with the cells remaining viable in culture for >24 hours. Under non-stimulating conditions, basal levels of NO release are very low (<30 nM). Measurement of NO release as a function of treatment was conducted in individual endothelial cells. Multiple measurements of NO release can be conducted on single cells following a brief refractory period. For robust statistical analysis, separate cells were used for each concentration and type of drug used in these analyses.

[1] = HUVECs from Non-Hispanic Whites

`CC(=O)SC1COC2C(O[N+](=O)[O-])COC12` (stereo not drawn) [LA-419, S-(6-Nitro-oxi-hexahydro-furo[3,2-b]furan-3-1-il)thioacetate] was tested. Which “NO release (mean ± S.D.)” value (HUVECs from African Americans) did it give?
The value was 253 ± 15 nM.

And the “ONOO− release (mean ± S.D.)” value (HUVECs from African Americans)?
The value was 532 ± 25 nM.

And the “NO release (mean ± S.D.)” value [1]?
The value was 409 ± 30 nM.

What about the “ONOO− release (mean ± S.D.)” value [1] of the same molecule?
Its value is 307 ± 11 nM.

And the “effect on NO release” value (HUVECs from both non-Hispanic whites and African Americans, identical conditions)?
Its value is “small increase”.

And the “NO/ONOO− ratio versus control samples” value (HUVECs, 12 h treatment)?
The value was “not significantly different from control samples”.
